# Reference: ChEMBL document CHEMBL5532637, “Antimicrobial activity of natural and semi-synthetic carbazole alkaloids” (Eur J Med Chem, 2023)
# Tests used:
# Pseudomonas putida = assay: Antibacterial activity against Pseudomonas putida MTCC102 assessed as inhibition of bacterial growth by broth micro-dilution assay; type: functional
# Staphylococcus aureus [1] = assay: Antibacterial activity against Staphylococcus aureus MTCC 96 assessed as inhibition of bacterial growth by broth micro-dilution assay; type: functional
# Escherichia coli [2] = assay: Antibacterial activity against Escherichia coli MTCC 1652 assessed as inhibition of bacterial growth by broth micro-dilution assay; type: functional
# Bacillus cereus = assay: Antibacterial activity against Bacillus cereus MTCC 121 assessed as inhibition of bacterial growth by broth micro-dilution assay; type: functional
# Xanthomonas axonopodis = assay: Antimicrobial activity against Xanthomonas axonopodis incubated for 24 to 48 hrs by turbidimeter test; type: functional, organism-based
# [3] = Antimicrobial activity against Pseudomonas syringae pv. actinidiae incubated for 24 to 48 hrs by turbidimeter test; type: functional
# Xanthomonas oryzae = assay: Antimicrobial activity against Xanthomonas oryzae incubated for 24 to 48 hrs by turbidimeter test; type: functional, organism-based
# Cryptococcus neoformans [4] = assay: Antimicrobial activity against Cryptococcus neoformans clinical isolate assessed as inhibition of microbial growth incubated for 18 hrs by resazurin dye based two-fold serial dilution assay; type: functional
# Staphylococcus aureus [5] = assay: Antimicrobial activity against Staphylococcus aureus assessed as inhibition of microbial growth incubated for 18 hrs by resazurin dye based two-fold serial dilution assay; type: functional
# Staphylococcus aureus [6] = assay: Antimicrobial activity against Staphylococcus aureus clinical isolate assessed as inhibition of microbial growth incubated for 18 hrs by resazurin dye based two-fold serial dilution assay; type: functional
# Cryptococcus neoformans [7] = assay: Antimicrobial activity against Cryptococcus neoformans ATCC6603 assessed as inhibition of microbial growth incubated for 18 hrs by resazurin dye based two-fold serial dilution assay; type: functional
# Bacillus subtilis [8] = assay: Antibacterial activity against Bacillus subtilis assessed as zone of inhibition at 400 ug/ml by disc-diffusion method; type: functional; conditions: read-out: IZ
# Fusarium oxysporum = assay: Antifungal activity against Fusarium oxysporum assessed as zone of inhibition at 400 ug/ml by disc-diffusion method; type: functional; conditions: read-out: IZ
# Aspergillus flavus = assay: Antifungal activity against Aspergillus flavus assessed as zone of inhibition at 400 ug/ml by disc-diffusion method; type: functional; conditions: read-out: IZ
# Escherichia coli [9] = assay: Antibacterial activity against Escherichia coli assessed as zone of inhibition at 400 ug/ml by disc-diffusion method; type: functional; conditions: read-out: IZ
# Pseudomonas aeruginosa [10] = assay: Antibacterial activity against Pseudomonas aeruginosa assessed as zone of inhibition at 400 ug/ml by disc-diffusion method; type: functional; conditions: read-out: IZ
# Macrophomina phaseolina = assay: Antifungal activity against Macrophomina phaseolina assessed as zone of inhibition at 400 ug/ml by disc-diffusion method; type: functional; conditions: read-out: IZ
# Staphylococcus aureus [11] = assay: Antimicrobial activity against Staphylococcus aureus RCMB000106 assessed as inhibition of microbial growth; type: functional
# Escherichia coli [12] = assay: Antimicrobial activity against Escherichia coli RCMB000103 assessed as inhibition of microbial growth; type: functional
# Bacillus subtilis [13] = assay: Antimicrobial activity against Bacillus subtilis RCMB 000107 assessed as inhibition of microbial growth; type: functional
# Aspergillus niger = assay: Antimicrobial activity against Aspergillus niger RCMB02329 assessed as inhibition of microbial growth; type: functional
# Salmonella typhimurium [14] = assay: Antimicrobial activity against Salmonella typhimurium RCMB010072 assessed as inhibition of microbial growth; type: functional, Salmonella enterica subsp. enterica serovar Typhimurium; conditions: Salmonella enterica
# Geotrichum candidum = assay: Antimicrobial activity against Geotrichum candidum RCMB050102 assessed as inhibition of microbial growth; type: functional
# Klebsiella pneumoniae = assay: Antimicrobial activity against Klebsiella pneumoniae RCMB000111 assessed as inhibition of microbial growth; type: functional
# Escherichia coli [15] = assay: Antibacterial activity against Escherichia coli MTCC 1687 assessed as inhibition of bacterial growth incubated for 24 hrs by two-fold serial dilution method; type: functional
# Bacillus subtilis [16] = assay: Antibacterial activity against Bacillus subtilis MTCC441 assessed as inhibition of bacterial growth incubated for 24 hrs by two-fold serial dilution method; type: functional
# Pseudomonas aeruginosa [17] = assay: Antibacterial activity against Pseudomonas aeruginosa MTCC 1688 assessed as inhibition of bacterial growth incubated for 24 hrs by two-fold serial dilution method; type: functional
# Staphylococcus aureus [18] = assay: Antibacterial activity against Staphylococcus aureus MTCC 96 assessed as inhibition of bacterial growth incubated for 24 hrs by two-fold serial dilution method; type: functional
# Staphylococcus aureus [19] = assay: Antibacterial activity against Staphylococcus aureus assessed as inhibition of bacterial growth by broth microdilution method; type: functional
# Salmonella typhimurium [20] = assay: Antibacterial activity against Salmonella typhimurium assessed as inhibition of bacterial growth by broth dilution method; type: functional, Salmonella enterica subsp. enterica serovar Typhimurium; conditions: Salmonella enterica
# Streptococcus pyogenes = assay: Antibacterial activity against Streptococcus pyogenes assessed as inhibition of bacterial growth by broth dilution method; type: functional
# Escherichia coli [21] = assay: Antibacterial activity against Escherichia coli assessed as inhibition of bacterial growth by broth dilution method; type: functional
# Proteus mirabilis = assay: Antibacterial activity against Proteus mirabilis ATCC 29906 assessed as inhibition of bacterial growth; type: functional
# Candida albicans [22] = assay: Antifungal activity against Candida albicans ATCC 1231 assessed as inhibition of fungal growth; type: functional
# Bacillus subtilis [23] = assay: Antibacterial activity against Bacillus subtilis DSM 6333 assessed as inhibition of bacterial growth; type: functional
# Staphylococcus aureus [24] = assay: Antibacterial activity against Staphylococcus aureus […] assessed as inhibition of bacterial growth; type: functional
# Bacillus subtilis [25] = assay: Antibacterial activity against Bacillus subtilis assessed as inhibition of bacterial growth incubated for 24 hrs by macrodilution broth method; type: functional
# Staphylococcus aureus [26] = assay: Antibacterial activity against Staphylococcus aureus assessed as inhibition of bacterial growth incubated for 24 hrs by macrodilution broth method; type: functional
# Escherichia coli [27] = assay: Antibacterial activity against Escherichia coli assessed as inhibition of bacterial growth incubated for 24 hrs by macrodilution broth method; type: functional
# Pseudomonas aeruginosa [28] = assay: Antibacterial activity against Pseudomonas aeruginosa assessed as inhibition of bacterial growth incubated for 24 hrs by macrodilution broth method; type: functional
# Streptococcus mutans = assay: Antimicrobial activity against Streptococcus mutans 3289 assessed as inhibition of microbial growth incubated for 24 hrs by two-fold serial dilution assay; type: functional
# Escherichia coli [29] = assay: Antimicrobial activity against Escherichia coli 1924 assessed as inhibition of microbial growth incubated for 24 hrs by two-fold serial dilution assay; type: functional
# Staphylococcus aureus [30] = assay: Antimicrobial activity against Staphylococcus aureus 4220 assessed as inhibition of microbial growth incubated for 24 hrs by two-fold serial dilution assay; type: functional
# Candida albicans [31] = assay: Antimicrobial activity against Candida albicans 7535 assessed as inhibition of microbial growth incubated for 24 hrs by two-fold serial dilution assay; type: functional
# Staphylococcus aureus [32] = assay: Antimicrobial activity against methicillin-resistant Staphylococcus aureus CCARM 3167 assessed as inhibition of microbial growth incubated for 24 hrs by two-fold serial dilution assay; type: functional
# Candida albicans [33] = assay: Antifungal activity against Candida albicans assessed as inhibition of fungal growth incubated for 1 to 5 days; type: functional; conditions: time 1-5 day
compound,measurement,setting,value
O=C(Nc1ccc(F)cc1)C(=O)c1ccc2c(c1)c1ccccc1n2Cc1ccc(Cl)cc1,MIC,Pseudomonas putida,8 µg/mL
same,MIC,Staphylococcus aureus [1],8 µg/mL
same,MIC,Escherichia coli [2],8 µg/mL
same,MIC,Bacillus cereus,8 µg/mL
OC(CNCc1ccc(Cl)cc1)Cn1c2ccccc2c2ccccc21 (stereo unspecified),EC50,Xanthomonas axonopodis,1.96 µg/mL
same,EC50,[3],3.83 µg/mL
same,EC50,Xanthomonas oryzae,1.27 µg/mL
COc1cccc2c1[nH]c1ccc(C(=O)N3CCCCC3C)cc12 (stereo unspecified),MIC,Cryptococcus neoformans [4],12.5 µg/mL
same,MIC,Staphylococcus aureus [5],6.25 µg/mL
same,MIC,Staphylococcus aureus [6],6.25 µg/mL
same,MIC,Cryptococcus neoformans [7],6.25 µg/mL
CCn1c2ccccc2c2cc3c(cc21)C(=O)CCC(=O)N3,zone of inhibition at 400 µg/mL,Bacillus subtilis [8],27 mm
same,zone of inhibition at 400 µg/mL,Fusarium oxysporum,18 mm
same,zone of inhibition at 400 µg/mL,Aspergillus flavus,19 mm
same,zone of inhibition at 400 µg/mL,Escherichia coli [9],20 mm
same,zone of inhibition at 400 µg/mL,Pseudomonas aeruginosa [10],16 mm
same,zone of inhibition at 400 µg/mL,Macrophomina phaseolina,19 mm
CCn1c2ccccc2c2cc(/C=N/NC3=NC(=O)/C(=N\Nc4ccccc4)S3)ccc21,MIC,Staphylococcus aureus [11],0.49 µg/mL
same,MIC,Escherichia coli [12],0.49 µg/mL
same,MIC,Bacillus subtilis [13],0.49 µg/mL
same,MIC,Aspergillus niger,0.49 µg/mL
same,MIC,Salmonella typhimurium [14],0.49 µg/mL
same,MIC,Geotrichum candidum,0.49 µg/mL
same,MIC,Klebsiella pneumoniae,0.49 µg/mL
CCOC(=O)C1COC2=C(C(=O)N3c4ccccc4C4C=CC=C2C43)C1c1ccc(OC)cc1 (stereo unspecified),MIC,Escherichia coli [15],6.25 µg/mL
same,MIC,Bacillus subtilis [16],12.5 µg/mL
same,MIC,Pseudomonas aeruginosa [17],12.5 µg/mL
same,MIC,Staphylococcus aureus [18],12.5 µg/mL
CCOC(=O)C1=C(C)NC2=C(C(=O)c3ccccc32)C1c1ccc2c(c1)c1ccccc1n2CC (stereo unspecified),MIC,Staphylococcus aureus [19],32 µg/mL
same,MIC,Salmonella typhimurium [20],32 µg/mL
same,MIC,Streptococcus pyogenes,64 µg/mL
same,MIC,Escherichia coli [21],32 µg/mL
c1ccc2c(c1)c1ccccc1n2Cn1cncn1,MIC,Proteus mirabilis,31.2 µg/mL
same,MIC,Candida albicans [22],0.016 µg/mL
same,MIC,Bacillus subtilis [23],31.2 µg/mL
same,MIC,Staphylococcus aureus [24],31.2 µg/mL
COC(=O)C(C)c1ccc2c3cc(Cl)ccc3n(CC(=O)Nc3c(C)cccc3C)c2c1 (stereo unspecified),MIC,Bacillus subtilis [25],0.25 µg/mL
same,MIC,Staphylococcus aureus [26],0.25 µg/mL
same,MIC,Escherichia coli [27],0.25 µg/mL
same,MIC,Pseudomonas aeruginosa [28],0.25 µg/mL
CN(C)C1=NC(c2ccc3c(c2)c2ccccc2n3Cc2ccc(Cl)cc2Cl)N=C(N)N1 (stereo unspecified),MIC,Streptococcus mutans,0.5 µg/mL
same,MIC,Escherichia coli [29],0.5 µg/mL
same,MIC,Staphylococcus aureus [30],0.5 µg/mL
same,MIC,Candida albicans [31],0.5 µg/mL
same,MIC,Staphylococcus aureus [32],0.5 µg/mL
CCn1c2ccccc2c2cc(-c3cc(-c4cc(Cl)cc(O)c4O)n[nH]3)ccc21,MIC,Candida albicans [33],25 µg/mL
